“Also recorded” adds a separate entry of the source.
Tests used:
[1] = Tests of AII fragments for effectiveness (test not described); conditions: test not specified
[2] = tested on: dendritic cells; assay: Effect of angiotensin peptides on dendritic cell proliferation (cells per well by phase contrast microscopy); format: cell-based, C57B1/6 mice; conditions: cytokine(s) added to the cultures alone
From the text: Isolation of Dendritic Cells from Mice Treated with flt3 Ligand: Spleens were enriched in vivo with dendritic cells by stimulation with flt3 ligand (Marakovsky et al, 1996). C57B1/6 mice were subcutaneously injected with 4×10^6 flt3 ligand-secreting B16 melanoma cells prepared by transfection of murine flt3 ligand cDNA with the retroviral vector MFG. Spleen cells were harvested after the tumors reached 2-3 cm in diameter, at which time the spleens were 5-10 fold enlarged over those of untreated mice.
The spleens were harvested and the cells were dispersed through sterile screens. A single cell suspension of whole splenocytes was resuspended in a high-density BSA solution (1 ml/spleen) containing 10.6 g BSA, 18.6 ml PBS, 2.9 ml 1 N NaOH, and 6.5 ml water. After overlaying 2 ml of ice-cold RPMI, the splenocyte/BSA solution was centrifuged for 15 minutes at 9500 g. About 5×10^7 dendritic cells/spleen were recovered from the interface and resuspended in RPMI. […]
Culture of Dendritic Cells: Twenty four hours after isolation, these cells were counted and placed in culture in RPMI 1640 supplemented with 10% fetal calf serum, 2 mM 1 glutamine, 1 mM sodium pyruvate, 50 μM mercaptoethanol, 100 U/ml penicillin and 100 μg/ml streptomycin at a concentration of 1×10^3 cells/well of a 96 well plate. One third of the wells were counted at random to ensure even distribution of the cells to the wells. […]

Molecule | effectiveness [1] | number of cells per well / cellular proliferation, cytokine without angiotensin peptide [2]
His-Pro-Phe (HPF) [AII(6-8)] | not to be effective | 
Tyr-Ile-His-Pro-Phe (YIHPF) [AII(4-8)] | not to be effective; also recorded: ineffective | 
GM-CSF: murine recombinant granulocyte macrophage-colony stimulating factor, 50 ng/ml (protein, UniProt P01587 18-141, looked up) Granulocyte-macrophage …: APTRSPITVTRPWKHVEAIKEALNLLDDMPVTLNEEVEVVSNEFSFKKLTCVQTRLKIFEQGLRGNFTKLKGALNMTASYYQTYCPPTPETDCETQVTTYADFIDSLKTFLTDIPFECKKPGQK |  | did not increase cellular proliferation
IL-6: murine recombinant Interleukin 6 (IL-6), 25 ng/ml (protein, UniProt P08505 25-211, looked up) Interleukin-6: FPTSQVRRGDFTEDTTPNRPVYTTSQVGGLITHVLWEIVEMRKELCNGNSDCMNNDDALAENNLKLPEIQRNDGCYQTGYNQEICLLKISSGLLEYHSYLEYMKNNLKDNKKDKARVLQRDTETLIHIFNQEVKDLHKIVLPTPISNALLTDKLESQKEWLRTKTIQFILKSLEEFLKVTLRSTRQT |  | did not affect the number of cells per well
